In patent US6737383B1, “Herbicidal oxadiazolidines” (priority 1999, dated 2004):

How the values were obtained:
bamyardgrass = assay: Test B flood test barnyardgrass; assay type: in vivo, Echinochloa crus-galli
How it was run: (§1)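 Plants were grown to the 2-leaf stage before treatment with test chemical, then held in a greenhouse for twelve to sixteen days. Injury was visually rated against untreated controls on a 0–10 scale, where 0 is no effect and 10 is complete control.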

blackgrass = assay: Test B pre/postemergence blackgrass; assay type: in vivo, Alopecurus myosuroides
How it was run: (§2)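 Herbicidal effect was estimated by eye on a ten-point control scale after plants spent twelve to sixteen days in a greenhouse following soil or foliar treatment. Foliar sprays targeted plants at one to four leaves; all doses were formulated in a non-phytotoxic solvent with surfactant.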

giant foxtail = assay: Test B pre/postemergence giant foxtail; assay type: in vivo, Setaria faberii
How it was run: as §2

rape = assay: Test B pre/postemergence rape; assay type: in vivo, Brassica napus
How it was run: as §2

velvetleaf = assay: Test B pre/postemergence velvetleaf; assay type: in vivo, Abutilon theophrasti
How it was run: as §2

soybean = assay: Test B pre/postemergence soybean; assay type: in vivo, Glycine max
How it was run: as §2

morningglory = assay: Test B pre/postemergence morningglory; assay type: in vivo, Ipomoea hederacea
How it was run: as §2

rice = assay: Test B flood test rice; assay type: in vivo, Oryza sativa
How it was run: as §1

smallflower flatsedge = assay: Test B flood test smallflower flatsedge; assay type: in vivo, Cyperus difformis
How it was run: as §1

sugar beet = assay: Test B pre/postemergence sugar beet; assay type: in vivo, Beta vulgaris
How it was run: as §2

wild oat = assay: Test B pre/postemergence wild oat; assay type: in vivo, Avena fatua
How it was run: as §2

purple nutsedge = assay: Test B pre/postemergence purple nutsedge; assay type: in vivo, Cyperus rotundus
How it was run: as §2

wheat = assay: Test B pre/postemergence wheat; assay type: in vivo, Triticum aestivum
How it was run: as §2

bedstraw = assay: Test B pre/postemergence bedstraw; assay type: in vivo, Galium aparine; settings: Postemergence
How it was run: as §2

duck salad = assay: Test B flood test duck salad; assay type: in vivo, Heteranthera limosa
How it was run: as §1

pigweed = assay: Test B pre/postemergence pigweed; assay type: in vivo, Amaranthus retroflexus
How it was run: as §2

[1] = Postemergence block (flood test species), Rate 250 g/ha, scale 0 to 10
[2] = Postemergence section (flood test species), Rate 500 g/ha, scale of 0 to 10 where 0 is no effect and 10 is complete control
[3] = Rate 62 g/ha, Postemergence (flood test species), scale of 0 to 10 where 0 is no effect and 10 is complete control
[4] = Rate 125 g/ha, Postemergence section (flood test species), scale 0 to 10, 0 is no effect, 10 is complete control
[5] = Postemergence, Rate 250 g/ha, scale 0 to 10
[6] = Postemergence, Rate 500 g/ha, scale of 0 to 10 where 0 is no effect and 10 is complete control
[7] = Preemergence, Rate 62 g/ha, scale 0 to 10 (0 no effect, 10 complete control)
[8] = Preemergence, Rate 125 g/ha, scale of 0 to 10 where 0 is no effect and 10 is complete control
[9] = Preemergence, Rate 500 g/ha, scale 0 to 10, 0 is no effect, 10 is complete control
[10] = Rate 62 g/ha, Postemergence, scale of 0 to 10 where 0 is no effect and 10 is complete control
[11] = Rate 125 g/ha, Postemergence, scale 0 to 10, 0 is no effect, 10 is complete control
[12] = Preemergence, Rate 250 g/ha, scale 0 to 10, 0 is no effect, 10 is complete control

CC(C)N(C(=O)n1oc(=O)n(C[Si](C)(C)c2ccccc2)c1=O)c1ccc(Cl)cc1 [Compound 424]
1: Soybean plant response rating (soybean; [5]) | Morningglory plant response rating (morningglory; [6])
0: Barnyardgrass plant response rating (bamyardgrass; [1]) | Barnyardgrass plant response rating (bamyardgrass; [2]) | Barnyardgrass plant response rating (bamyardgrass; [3]) | Barnyardgrass plant response rating (bamyardgrass; [4]) | Blackgrass plant response rating (blackgrass; [5]) | Blackgrass plant response rating (blackgrass; [6]) | Plant response rating, Blackgrass (blackgrass; [7]) | Plant response rating, Blackgrass (blackgrass; [8]) | Blackgrass plant response rating (blackgrass; Preemergence, Rate 250 g/ha, scale of 0 to 10 where 0 is no effect and 10 is complete control) | Blackgrass plant response rating (blackgrass; [9]) | Blackgrass plant response rating (blackgrass; [10]) | Blackgrass plant response rating (blackgrass; [11]) | Giant foxtail plant response rating (giant foxtail; [5]) | Giant foxtail plant response rating (giant foxtail; [6]) | Plant response rating, Giant foxtail (giant foxtail; [7]) | Plant response rating, Giant foxtail (giant foxtail; [8]) | Giant foxtail plant response rating (giant foxtail; [12]) | Giant foxtail plant response rating (giant foxtail; [9]) | Giant foxtail plant response rating (giant foxtail; [10]) | Giant foxtail plant response rating (giant foxtail; [11]) | Rape plant response rating (rape; [5]) | Rape plant response rating (rape; [6]) | Plant response rating, Rape (rape; [7]) | Plant response rating, Rape (rape; [8]) | Rape plant response rating (rape; [12]) | Rape plant response rating (rape; [9]) | Rape plant response rating (rape; [11]) | Velvetleaf plant response rating (velvetleaf; [5]) | Velvetleaf plant response rating (velvetleaf; [6]) | Plant response rating, Velvetleaf (velvetleaf; [7]) | Plant response rating, Velvetleaf (velvetleaf; [8]) | Velvetleaf plant response rating (velvetleaf; [12]) | Velvetleaf plant response rating (velvetleaf; [9]) | Velvetleaf plant response rating (velvetleaf; [11]) | Plant response rating, Soybean (soybean; [7]) | Plant response rating, Soybean (soybean; [8]) | Soybean plant response rating (soybean; [12]) | Soybean plant response rating (soybean; [9]) | Soybean plant response rating (soybean; [11]) | Morningglory plant response rating (morningglory; [5]) | Plant response rating, Morningglory (morningglory; [7]) | Plant response rating, Morningglory (morningglory; [8]) | Morningglory plant response rating (morningglory; [12]) | Morningglory plant response rating (morningglory; [9]) | Morningglory plant response rating (morningglory; [11]) | Rice plant response rating (rice; [1]) | Rice plant response rating (rice; [2]) | Rice plant response rating (rice; [4]) | S. Flatsedge plant response rating (smallflower flatsedge; [1]) | S. Flatsedge plant response rating (smallflower flatsedge; [2]) | S. Flatsedge plant response rating (smallflower flatsedge; [4]) | Sugarbeets plant response rating (sugar beet; [5]) | Sugarbeets plant response rating (sugar beet; [6]) | Plant response rating, Sugarbeets (sugar beet; [7]) | Plant response rating, Sugarbeets (sugar beet; [8]) | Sugarbeets plant response rating (sugar beet; [12]) | Sugarbeets plant response rating (sugar beet; [9]) | Sugarbeets plant response rating (sugar beet; [11]) | Wild oats plant response rating (wild oat; [5]) | Wild oats plant response rating (wild oat; [6]) | Plant response rating, Wild oats (wild oat; [7]) | Plant response rating, Wild oats (wild oat; [8]) | Wild oats plant response rating (wild oat; [12]) | Wild oats plant response rating (wild oat; [9]) | Wild oats plant response rating (wild oat; [11]) | Nutsedge plant response rating (purple nutsedge; [5]) | Nutsedge plant response rating (purple nutsedge; [6]) | Plant response rating, Nutsedge (purple nutsedge; [7]) | Plant response rating, Nutsedge (purple nutsedge; [8]) | Nutsedge plant response rating (purple nutsedge; [12]) | Nutsedge plant response rating (purple nutsedge; [9]) | Nutsedge plant response rating (purple nutsedge; [11]) | Wheat plant response rating (wheat; [5]) | Wheat plant response rating (wheat; [6]) | Plant response rating, Wheat (wheat; [7]) | Plant response rating, Wheat (wheat; [8]) | Wheat plant response rating (wheat; [12]) | Wheat plant response rating (wheat; [9]) | Wheat plant response rating (wheat; [11]) | Bedstraw plant response rating (bedstraw; Rate 250 g/ha, scale 0 to 10) | Bedstraw plant response rating (bedstraw; Rate 500 g/ha, scale of 0 to 10 where 0 is no effect and 10 is complete control) | Bedstraw plant response rating (bedstraw; Rate 62 g/ha, scale of 0 to 10 where 0 is no effect and 10 is complete control) | Bedstraw plant response rating (bedstraw; Rate 125 g/ha, scale 0 to 10, 0 is no effect, 10 is complete control) | Ducksalad plant response rating (duck salad; [1]) | Ducksalad plant response rating (duck salad; [2]) | Ducksalad plant response rating (duck salad; [3]) | Ducksalad plant response rating (duck salad; [4]) | Redroot pigweed plant response rating (pigweed; [5]) | Redroot pigweed plant response rating (pigweed; [6]) | Plant response rating, Redroot pigweed (pigweed; [7]) | Plant response rating, Redroot pigweed (pigweed; [8]) | Redroot pigweed plant response rating (pigweed; [12]) | Redroot pigweed plant response rating (pigweed; [9]) | Redroot pigweed plant response rating (pigweed; [11])
2: Soybean plant response rating (soybean; [6])
